Columns and labels:
benzodiazepine receptors = assay: Displacement of 3H-flunitrazepam binding in vitro (rat forebrain); conditions: 3H-flunitrazepam 1.0 nM, 0° C.
benzodiazepin receptors = assay: Inhibition of 3H-flunitrazepam binding in vivo (mouse forebrain); conditions: mice, s.c.; 3H-flunitrazepam i.v. 15 min later, killed after additional 20 min; 35 min
Procedure: The displacement activity of the compounds of the invention has been determined by determined the IC50 value and ED50 value.
The ED50 value represents the dose (mg/kg) of a test substance which causes the specific binding of flunitrazepam to benzodiazepin receptors in a living brain to be reduced to 50% of the control value. Such an in vivo test is carried out as follows:
Groups of mice are injected with the test substance at different doses and usually subcutaneously. 15 minutes later, ^3 H-flunitrazepam is given intravenously to the mice and after an additional 20 minutes, the mice are killed. Their forebrain membranes are removed and the radioactivity of the forebrain membranes is measured by scintillation counting. The ED50 value is determined from dose-response curves.

rats [1] = assay: Motility of rats in familiar cages during rest period (awakening effect); format: in vivo; conditions: for motility versus saline control: 4 hours; for behavior during the experimental (rest) period: ethyl ester 20-100 mg/kg s.c., methylamide 20-100 mg/kg p.o., amphetamine s.c.
Procedure: Normal locomotion, grooming and eating occur during the dark period and rest during the light period. If CNS stimulants are given to rats which have stayed in their cages for several hours, a pronounced hypermotility is observed during the light period (Buus Lassen, Psychopharmacologia 1973, 29, 55-64; Kallman and Isaac, Psychopharmacologia 1975, 40, 313-318).
Psysiological saline and test substances were administered s.c. or p.o. to rats kept in familiar cages. The motility was measured for 4 hours (2 periods of 2 hours) after administrations. The motility of groups receiving test substances was compared (Student's t-test) with the motility of the saline-treated control group.

[2] = Acute toxicity in mice (deaths within 24 hours); conditions: mouse, in vivo
Procedure: The acute toxicity in mice was determined by recording the number of deaths within 24 hours.

mice = assay: Inhibition of aggression in isolated male mice; format: in vivo; conditions: Mus musculus, sc, 0.5 h, s.c., 1/2 hour, read-out: ED50 inhibition of agression (1/2h)
Procedure: The inhibition of aggression has been determined on male mice (NMR from Mollegaard, Denmark) having a weight of 20-22 g. The mice are isolated for 3 weeks in plastic cages and when two mice subsequently are brought into the same cage, they will spontaneously and almost instantaneously start fighting. […] J. Pharmacol., 1978, 47, 45-49. The compounds of the invention were administered subcutaneously and orally and the antiaggressive effect after 1/2 hour was determined. Based on the data obtained, the ED50 value has been calculated.

rats [3] = assay: Inhibition of exploratory motility in rats (sedative effect); format: in vivo; conditions: Rattus norvegicus, sc, 0.5 h, 30 min after s.c. administration, first 10 min in novel cage
Procedure: Inhibition of exploratory motility in rodents is a widely used test for sedative effect. A compound of this invention and two well known tranquilizers have been subjected to such a test.
30 Minutes after subcutaneous administration of physiological saline and test substances, rats were transferred to a novel cage and the motility was measured for the first 10 minutes. The ED50 is the dose inhibiting the motility by 50% as compared to the controls.

[4] = Inhibition of motor coordination (ataxia) in mice; conditions: mouse, in vivo, sc, 30 minutes after s.c. administration, read-out: ED50 Ataxia (Motor incoordination)
Procedure: The inhibition of motor coordination in mice was also studied 30 minutes after subcutaneous administration in accordance with a method described in the literature (Buus Lassen et al, Acta pharmacol. et toxicol., 1971, 39, 1-16).

SMILES	IC50 in vitro, inhibition of 3H-flunitrazepam binding (benzodiazepine receptors) [µg/mL]	ED50 in vivo, inhibition of 3H-flunitrazepam binding (benzodiazepin receptors) [mg/kg s.c.]	ED50 (mice) [mg/kg]	also measured
O=C(c1cc2c(cn1)[nH]c1ccccc12)N1CCCC1	3.3	> 250		
O=C(c1cc2c(cn1)[nH]c1ccccc12)N1CCCCC1	0.36	> 250		
CN1CCN(C(=O)c2cc3c(cn2)[nH]c2ccccc23)CC1	> 4	> 250		
CC(N)Cc1ccccc1 (centres unmarked) [Amphetamine, reference compound]				motility versus saline control (rats [1]; 0.5-5 mg/ig s.c.): produced a significant hypermotility; behavior during the experimental (rest) period (rats [1]): continuous, stereotyped sniffing, rearing and licking on the cage walls; behavior during the experimental (rest) period (rats [1]; listed as amphetamine): induced an abnormal behavior which never occurs in saline-treated control rats
CNC1=Nc2ccc(Cl)cc2C(c2ccccc2)=[N+]([O-])C1 [Chlordiazepoxide, reference compound]			45	LD50 at 24 h [2]: 700 mg/kg; ED50 (rats [3]): 1.2 mg/kg; TD50 at 0.5 h [4]: 50 mg/kg
CN1C(=O)CN=C(c2ccccc2)c2cc(Cl)ccc21 [Diazepam, reference compound]			3	ED50 (rats [3]): 0.4 mg/kg; motility versus saline control (rats [1]; 10-20 mg/kg s.c.): did not influence motility
CCN(CC)C(=O)c1cc2c(cn1)[nH]c1ccccc12 [N C2 H5 (C2 H5), β-carbolin-3-carboxylic acid diethylamide]	4.3	82	35	
CN(C(=O)c1cc2c(cn1)[nH]c1ccccc12)c1ccccc1 [N CH3 (C6 H5), N-methyl-N-phenyl-β-carbolin-3-carboxamide]	> 4	> 250		
CCNC(=O)c1cc2c3ccccc3n(C(=O)OCC)c2cn1 [NH(C2 H5), COOC2 H5, 9-carbethoxy β-carbolin-3-carboxylic acid, ethylamide]	0.16	> 100		
CCNC(=O)c1cc2c(cn1)[nH]c1ccccc12 [NH(C2 H5), β-carbolin-3-carboxylic acid N-ethylamide]	0.11	42	18	LD50 at 24 h [2]: > 250 mg/kg; TD50 at 0.5 h [4]: > 100 mg/kg
O=C(NC1CC1)c1cc2c(cn1)[nH]c1ccccc12 [NH(C3 H5), N'-cyclopropyl-β-carbolin-3-carboxamide]	0.044	38		
O=C(NCc1ccccc1)c1cc2c(cn1)[nH]c1ccccc12 [NH(CH2 C6 H5)]	0.017	> 250		
O=C(NCCO)c1cc2c(cn1)[nH]c1ccccc12 [NH(CH2 CH2 OH)]	0.2	56		
NC(=O)CNC(=O)c1cc2c(cn1)[nH]c1ccccc12 [NH(CH2 CONH2)]	0.92	> 250		
CCOC(=O)CNC(=O)c1cc2c(cn1)[nH]c1ccccc12 [NH(CH2 COOC2 H5)]	0.16	> 250		
CNC(=O)c1cc2c(cn1)[nH]c1ccccc12 [NH(CH3), β-carbolin-3-carboxylic acid methylamide]	0.1	25		motility versus saline control (rats [1]; 20-100 mg/kg p.o., Student's t-test): increased the motility significantly (P<0.001); behavior during the experimental (rest) period (rats [1]): appeared more alert than the controls during the experimental period and showed more spells of locomotion, eating and grooming
CC(C)NC(=O)c1cc2c(cn1)[nH]c1ccccc12 [NH(iso-C3 H7)]	0.15	23	75	
CCOC(=O)c1cc2c(cn1)[nH]c1ccccc12 [OC2 H5, β-carbolin-3-carboxylic acid ethyl ester]	0.0014	60	4	LD50 at 24 h [2]: > 500 mg/kg; ED50 (rats [3]): > 100 mg/kg; motility versus saline control (rats [1]; 20-100 mg/kg s.c., Student's t-test): increased the motility significantly (P<0.001); behavior during the experimental (rest) period (rats [1]): appeared more alert than the controls during the experimental period and showed more spells of locomotion, eating and grooming; TD50 at 0.5 h [4]: > 100 mg/kg
CCCCCOC(=O)c1cc2c(cn1)[nH]c1ccccc12 [OC5 H11, n-pentyl β-carbolin-3-carboxylate]	0.012	> 250	50	

Source: patent US4371536A, “β-Carbolin-3-carboxylic acid derivatives” (A/S Ferrosan, priority 1979, dated 1983)
